ChEMBL document CHEMBL6096665 (Eur J Med Chem, 2025)

Molecular target: T1, Bile acid receptor (Homo sapiens, UniProt Q96RI1)
T1 sequence (Q96RI1 whole entry): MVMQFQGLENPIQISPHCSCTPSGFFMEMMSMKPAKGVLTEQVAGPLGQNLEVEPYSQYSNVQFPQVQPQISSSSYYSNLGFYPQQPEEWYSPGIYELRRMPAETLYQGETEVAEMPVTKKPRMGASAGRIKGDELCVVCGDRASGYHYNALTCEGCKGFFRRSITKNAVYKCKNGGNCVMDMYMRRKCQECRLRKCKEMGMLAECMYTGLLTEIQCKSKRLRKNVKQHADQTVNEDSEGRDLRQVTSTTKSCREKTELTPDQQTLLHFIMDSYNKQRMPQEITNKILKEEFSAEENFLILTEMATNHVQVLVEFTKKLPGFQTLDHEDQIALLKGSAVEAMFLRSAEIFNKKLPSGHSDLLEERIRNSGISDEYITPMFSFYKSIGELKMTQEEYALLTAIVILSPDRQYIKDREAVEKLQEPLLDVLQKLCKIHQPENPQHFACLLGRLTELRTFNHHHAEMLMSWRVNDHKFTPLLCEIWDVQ
Assay: Agonist activity at FXR-LBD (unknown origin) incubated for 3 hrs using fluorescein coactivator peptide by FRET assay

**Q.** How did the EC50 turn out when O=C(O)c1ccc(OCc2ccc(OCc3c(-c4c(Cl)cccc4Cl)noc3C3CC3)cc2)cc1 was run?
**A.** 253 nM
